Data reported in patent US12629319B2, “Injection apparatus and method of use” (MOBIUS THERAPEUTICS, INC., priority 2020, dated 2026).

Test system: Glaucoma patients
Assay: Clinical study: subtenon injection of MMC versus MMC-soaked sponges in trabeculectomy
Method: A clinical study was set up to compare the efficacy and safety of subtenon injection of mitomycin C (MMC) using the instant injection system and kits, with that of conventional application of MMC-soaked sponges in trabeculectomy. Glaucoma patients were randomized into two groups; group 1 received a subtenon injection of 0.1 mL of 0.01% MMC by the second sterile syringe, while group 2 received 0.02% MMC-soaked Weck-Cel® sponges to physically disperse the MMC. The injection was placed in the far posterior fornix on a 30-gauge needle prior to the conjunctival peritomy for trabeculectomy. Primary outcome measure is intraocular pressure (IOP), and secondary outcome measures are endothelial cell count (ECC) changes and bleb morphology according to the Indiana Bleb Appearance Grading Scale. Outcome measures were compared at 1, 3 and 6 months postoperatively. Complete and qualified success was defined as IOP within 6-15 mm Hg without and with medications at month 6, respectively.
Data was to be presented in the form of mean, SD, median and range, frequency and percentage values. Normal distribution of data was assessed by Kolmogrov-Smirnov test and Q-Q plot. To evaluate differences between the study groups, χ2, t-test and Mann-Whitney tests. Wilcoxon singed-rank test and the linear mixed model were used to assess changes within the study groups. The Wilcoxon singed-rank test is followed by Bonferroni correction to consider multiple comparisons. To compare the groups adjusted for baseline values, analysis of covariance and Poisson regression (based on the type of response) were used. All statistical analyses were performed using SPSS software (IBM SPSS Statistics for Windows, V. 23.0, Released 2014, IBM, Armonk, New York, USA). All tests were two-sided and p values less than 0.05 were considered statistically significant.

CO[C@@]12[C@H](COC(N)=O)C3=C(C(=O)C(C)=C(N)C3=O)N1C[C@@H]1N[C@@H]12 [MMC, mitomycin C]
dependence on glaucoma medications (MMC injection compared to cellulose sponge delivery, trabeculectomy): decreased | bleb morphology (Indiana Bleb Appearance Grading Scale) (MMC injection compared to trabeculectomies performed with sponges): more favorable | overall study conclusion for MMC injection versus sponge delivery (MMC injection through the instant apparatus and kits): non-inferiority with improved predictability | intraocular pressure (IOP) (subtenon injection of 0.1 mL of 0.01% MMC compared to 0.02% MMC-soaked cellulose sponges, trabeculectomy, 1, 3 and 6 months postoperatively): lower
